Laboratory results as given in patent US9513294B2, “Megastokes amino-triazolyl-BODIPY compounds and applications to live neuron staining and human serum albumin FA1 drug site probing” (National University of Singapore, priority 2012, dated 2016).

Assays:
[1] = Absorbance and fluorescence emission spectra (SpectraMax M2); assay type: physicochemical
Method in brief: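 Absorbance and emission maxima measured on a SpectraMax M2 spectrophotometer, which also gave quantum yield data; analysis in GraphPrism.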

[2] = Quantum yield measurements versus Acridine Yellow in EtOH; assay type: physicochemical; settings: MKHA compounds; quantum yield
Method in brief: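 Fluorescence quantum yield is relative to Acridine Yellow in EtOH (Φ 0.47), with excitation at 460 nm. Integrated emission at 510–700 nm was corrected for absorbance at the excitation wavelength and for solvent refractive index.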

[3] = tested on: mixed primary neural cell populations; assay: Flow cytometry analysis and FACS sorting of mixed primary neural cells; assay type: cell-based, mouse
From the text: Unstained controls are shown in each spectrum from about 0 to about 1 G.
To further analyze this population of compound positive cells, the two populations (Bright and Dim) were sorted out cell re-culture and RNA extraction for gene analysis.

[4] = tested on: primary neurons; assay: Primary brain cell screening platform (neurons, astrocytes, microglia); assay type: cell-based; settings: 500 nM, 1 hour
From the text: Esterification to MKAA (and possibly other esters) improves permeability into intact live cells while maintaining staining specificity (FIG. 12). The acetylated MKAA undergoes rapid hydrolysis by cellular esterases after crossing the live cell membrane generates the active MKHA compound responsible for the fluorescence response. FIGS. 13 and 14 show the structures of example MKHA compounds that have been synthesized and tested for primary neuron staining.
For neuron probe discovery, a primary brain cell screening platform was utilized, which involved the use of primary neurons, astrocytes and microglia isolated by differential adhesion methods. These cells were prepared alongside one another in 384-well microplates and incubated in duplicate with 5,000 DOFL compounds at 500 nM concentrations for 1 hour at 4-5 days post-isolation (FIG. 15). […] The compound MKHA374-48 is alternately referred to herein as NeuO (pronounced “neo”) for Neuron Orange.

[5] = tested on: primary neurons; assay: Neuron viability, MTS cell cytotoxicity assay (Promega); assay type: cell-based, mouse; settings: 24 hour incubation, 500 nM or higher
Experimental: Primary neurons were isolated from P1-3 mouse pups by preferential adherence to poly-D-lysine coating. They were left to mature for 5 days before addition of compound at the stipulated concentrations for 24 h. The MTS assay (Promega) was used to assess viability according to manufacturer's instructions.
For long term tracking and downstream functional studies, it is critical that the compound is not cytotoxic towards the cells and that cells remain viable after staining.

[6] = tested on: live neurons; assay: Live cell compound staining and immunostaining of mixed primary neural cell cultures; assay type: cell-based, mouse; settings: 500 nM, brain cell preparations from P1-P3 mice
Experimental: Cells were stained with 500 nM of MKHA101-3 (Green) and imaged at 10× magnification before fixing with 4% PFA. They were then permeabilized with 0.1% Triton-X and immunostained with GFAP (Red) and neurons (Green).
Cells were stained with 500 nM of NeuO (Green) and imaged at 10× magnification before fixing with 4% PFA. They were then permeabilized with 0.1% Triton-X and immunostained with β-III-tubulin (Tuji, Yellow), GFAP (Red) and O4).
Using the heterogeneous brain cell preparations from P1-P3 mice, cells that were compound positive were also found to be β-III-tubulin positive (FIG. 17).
Using the heterogeneous brain cell preparations from P1-P3 mice, cells that were compound positive were also found to be β-III-tubulin (Tuji) positive (FIG. 18a). […] NeuO appears to stain all neurons regardless of subtype (FIG. 18b).

[7] = tested on: neurons; assay: Time lapse imaging of in vitro neuronal development; assay type: cell-based, mouse; settings: 500 nM
From the text: The survival of the cells and dye signal is critical in time lapse studies to analyze neuronal development and interaction with other neural cells.

- absorbance λmax ([1]; FIG. 2 normalized spectra): 468 nm
- emission λmax ([1]; FIG. 2 normalized spectra): 557 nm
- λmax Absorp. (nm) ([1]; MKHA compounds, absorbance maximum): 468 nm
- λmax Emission (nm) ([1]; MKHA compounds, fluorescence emission maximum): 557 nm
- φ (%) [2]: 0.3684%
SMILES: CCCc1cn(C2=[N+]3C(=C(c4ccc(NC(=O)CO)cc4)c4ccc(NCc5ccccc5)n4[B-]3(F)F)C=C2)nn1 [MKHA374-48, 7-(benzylamino)-5,5-difluoro-10-(4-(2-hydroxyacetamido)phenyl)-3-(4-propyl-1H-1,2,3-triazol-1-yl)-5H-dipyrrolo[1,2-c:2′,1′-][1,3,2]diazaborinin-4-ium-5-uide]
- flow cytometry profile of stained mixed neural cell populations [3]: neuronal population segregating from the main population
- fluorescence response / selectivity towards primary neurons in screening [4]: superior selectivity towards live neurons compared to the original MKHA101-3
- effect on cell viability [5]: did not affect cell viability significantly
- staining specificity for neurons over other neural cells [6]: stains the cell bodies and dendrites specifically over other neural cells
- time lapse imaging of stained neurons [7]: Bright NeuO stained neurons can be seen migrating from the interior of the sphere
